Measured values reported in patent publication US20030229122A1, “Use of methylphenidate compounds to enhance memory” (Sention, Inc., priority 2000, published 2003).
Entries after “also recorded” stand apart in the source; their conditions may differ.

Legend:
[1] = tested on: rats with lesions of the fornix; assay: Inhibitory Avoidance (IA) task in rats with lesions of the fornix (amnesic rats); type: in vivo, rat; details: 5 mg/kg, tested one hour after injection
Source text: Applicants have previously described an animal model for studying fornix-mediated memory consolidation. See, for example, Taubenfield et al., Supra. The fornix-lesioned animals can be used for drug screening, e.g., to identify dosages of the subject compositions which enhance memory consolidation. The lesioned mammal can have a lesion of the fornix or a related brain structure that disrupts memory consolidation (e.g., perirhinal cortex, amygdala, medial septal nucleus, locus coeruleus, hippocampus, mammillary bodies). Lesions in the mammal can be produced by mechanical or chemical disruption. For example, the fornix lesion can be caused by surgical ablation, electrolytic, neurotoxic and other chemical ablation techniques, or reversible inactivation such as by injection of an anesthetic, e.g., tetrodotoxin or lidocaine, to temporarily arrest activity in the fornix.
In one embodiment, the animal can be a rat. Briefly, the animals are anesthetized, e.g., with intraperitoneal injections of a ketamine-xylazine mixture and positioned in a Kopf stereotaxic instrument. A sagittal incision is made in the scalp and a craniotomy is performed extending 2.0 mm posterior and 3.0 mm lateral from Bregma. […]

IA memory in the rat = assay: Inhibitory Avoidance (IA) task, retention latency in normal rats; type: in vivo
Description: An exemplary passive avoidance test utilizes an apparatus that consists of a lit chamber that can be separated from a dark chamber by a sliding door. At training, the animal is placed in the lit chamber for some period of time, and the door is opened. The animal moves to the dark chamber after a short delay—the latency—that is recorded. Upon entry into the dark chamber, the door is shut closed and a foot shock is delivered. Retention of the experience is determined after various time intervals, e.g., 24 or 48 hours, by repeating the test and recording the latency. The protocol is one of many variants of the passive avoidance procedures (for review, see Rush (1988) Behav Neural Biol 50:255).
The Inhibitory Avoidance (IA) task is a well-studied behavioral paradigm which can provide the researcher with a consistent and long-lasting measure of memory. The paradigm consists of one training trial and one retention trial. Test articles may be administered to the rats either before or after training. Improved memory, as a result of test compound administration, is evident as increased latency on the retention trial. The objective of the following experiments was to investigate the effects of methylphenidate on IA memory in the rat.
In this experiment, rats were injected with three different doses of methylphenidate thirty minutes prior to training on the IA task.
Rats were injected with 5 mg/kg of methylphenidate and trained on the IA task.
In this experiment, the time of drug administration was varied in order to determine the optimal pre-training drug administration time.
This experiment was conducted in order to determine whether the enhanced retention observed in Experiment 2 was long-lasting. Rats received a second retention test one week after the first retention test. No additional training or drug was administered to the animals in the interim period.
In the next experiment, we investigated whether the performance of amnesic rats could be improved by administration of methylphenidate. In this experiment, control rats and rats with lesions of the fornix received injections of either saline or methylphenidate (5 mg/kg), and one hour later, were tested on the IA task.

COC(=O)C(c1ccccc1)C1CCCCN1 (stereo not drawn) [methylphenidate, methyl α-phenyl-2-piperidineacetate]
IA performance of fornix lesion rats (FIG. 3) [1]: appeared to improve; also recorded: not significantly different from normal, saline injected animals
IA performance of normal rats (FIG. 3) (IA memory in the rat; normal control rats, 5 mg/kg, tested one hour after injection, post hoc p<0.05, 5 mg/kg): dramatically enhanced; also recorded: significantly enhanced relative to all other experimental groups
retention on the IA task (FIG. 1) (IA memory in the rat; rats, 5 mg/kg injected thirty minutes prior to training): improved retention
optimal pre-training drug administration time (IA memory in the rat; rats, 5 mg/kg, time of administration varied): most effective when administered to the rats one hour prior to training
retention of the IA task, verifying experiment (FIG. 2) (IA memory in the rat; rats, 5 mg/kg, unpaired t-test p<0.03): significantly improved retention
retention on the IA task (FIG. 1) (IA memory in the rat; rats, 10 mg/kg injected thirty minutes prior to training): no effect
retention on the IA task (FIG. 1) (IA memory in the rat; rats, 15 mg/kg injected thirty minutes prior to training): no effect
long-term retention, second retention test (IA memory in the rat; rats, one week after the first retention test, no additional training or drug, t(54)=2.358, p<0.0220): still significantly enhanced
